PMC8868518, “Exploring Titanium(IV) Complexes as Potential Antimicrobial Compounds” (Antibiotics, 2022)

Columns and labels:
human red blood cells = test: CO-ADD hemolysis assay; type: cell-based; details: all concentrations examined (0.25-32 μg/mL), 1 h; HC10 and HC50 could not be measured
Description: The compounds were used as received by the CO-ADD. For the screenings, most compounds were dissolved to a stock concentration of 10 mg/mL in DMSO. K2[Ti(Citrate)3], Na3Citrate, and K2[TiO(Oxalate)2] were dissolved in warm water. [Cu(Deferasirox)(H2O)]2 was dissolved in pyridine after its solubility was determined to be excellent in pyridine due to coordination of the solvent to the metal producing [Cu(Deferasirox)(pyridine)]2 in situ. […] Each sample concentration was prepared in 384-well plates, non-binding surface plate (NBS; Corning 3640) for each bacterial/fungal strain, tissue-culture treated (TC-treated; Corning 3712/3764), black for mammalian cell types and polypropylene 384-well (PP; […] All sample preparation was conducted using liquid handling robots. Human whole blood (Australian Red Cross) was washed three times with three volumes of 0.9% NaCl and resuspended in a concentration of 0.5 × 10^8 cells per mL, determined by manual cell count in a Neubauer hemocytometer. Washed cells were added to the compound-containing plates (384-well polypropylene plates (PP); Corning 3657) for a final volume of 50 μL, shaken and incubated for 1 h at 37 °C. […]

MRC-5 cells = details: cited from earlier work

O=C([O-])C(=O)O.O=C([O-])C(=O)O.[K+].[K+].[O]=[Ti] [Compound 14, Potassium dioxalatoxotitanate(IV) dihydrate]
hemolysis of human red blood cells (in words) (human red blood cells): insignificant antiproliferative effect

O=C(O)c1ccc(-n2nc3nc2-c2ccccc2[O][Ti]2([O]c4ccccc4-3)[O]c3ccccc3-c3nc(n(-c4ccc(C(=O)O)cc4)n3)-c3ccccc3[O]2)cc1 [Compound 10, titanium(IV) bis(deferasirox)]
hemolysis of human red blood cells (in words) (human red blood cells): insignificant antiproliferative effect | IC50 ± SD (MRC-5 cells): 19.8 ± 0.8 µg/mL | IC50 (MRC-5 cells; read-out: IC50 ± SD): 25 ± 1 µM
